Source: US20110044938A1 (NYCOMED GMBH, priority 2006, published 2011)

Columns and labels:
[1] = test system: RKO (RKOp27) human colon adenocarcinoma cells; assay: Alamar Blue cell viability assay, anti-proliferative/cytotoxic activity on proliferating RKO subclones; format: cell-based; conditions: RKOp27, 72 h, RKO p27 uninduced (proliferating) cells, value = class bound given in Table A, read-out: −logIC50 RKO p27 uninduced (proliferating) (converted)
Outline: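 Alamar Blue fluorescence (ex 544, em 590 nm) after 72 h compound exposure at 37 °C, 5% CO2, normalised to untreated controls set at 100%. Cells were seeded at 5000 per well and dosed 24 h later with serial semi-logarithmic dilutions in 10% FCS DMEM, four replicates each. −log IC50 [mol/l] was derived from concentration-effect curves.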

[2] = test system: subclones of RKO colon adenocarcinoma cells (RKOp27 or RKOp21) arrested by Ponasterone A; assay: Alamar Blue cell viability assay, cell cycle specific mode of action: cells arrested by ectopic p27Kip1 induced by Ponasterone A versus proliferating cells; format: cell-based; conditions: Homo sapiens, RKO p27 induced (arrested) cells, 10 μM Ponasterone A, 72 hours, value = class bound given in Table A, read-out: −logIC50 RKO p27 induced (arrested) (converted)
Outline: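 Viability of proliferating versus Ponasterone A (10 μM)-arrested RKOp27/RKOp21 cells after 72 h compound exposure at 37° C, in quadruplicate. Read-out is Alamar Blue fluorescence (544/590 nm) normalised to untreated cells = 100%; values as −log IC50.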

Structure (SMILES)	IC50 [1] [nM]	IC50 [2] [nM]
CCOc1ccccc1CCC(=O)Nc1sc2c(c1C#N)CCC(COC(=O)NCc1nnc(C)o1)C2 (stereo not shown) [Example 200, (5-Methyl-[1,3,4]oxadiazol-2-ylmethyl)-carbamic acid 3-cyano-2-[3-(2-ethoxy-phenyl)-propanoylamino]-4,5,6,7-tetrahydro-benzo[b]thiophen-6-ylmethyl ester]	501 to 2000	≥ 100000
CCOc1ccccc1CCC(=O)Nc1sc2c(c1C#N)CCC(COC(=O)N1CCCC1)C2 (stereo not shown) [Example 201, Pyrrolidine-1-carboxylic acid 3-cyano-2-[3-(2-ethoxy-phenyl)-propanoylamino]-4,5,6,7-tetrahydro-benzo[b]thiophen-6-ylmethyl ester]	≤ 501	≥ 100000
CCOc1ccccc1CCC(=O)Nc1sc2c(c1C#N)CCC(COC(=O)OCc1ccsn1)C2 (stereo not shown) [Example 202, Carbonic acid 3-cyano-2-[3-(2-ethoxy-phenyl)-propanoylamino]-4,5,6,7-tetrahydro-benzo[b]thiophen-6-ylmethyl ester isothiazol-3-ylmethyl ester]	≤ 501	≥ 100000
CCOc1ccccc1CCC(=O)Nc1sc2c(c1C#N)CCC(COC(=O)OCc1nccs1)C2 (stereo not shown) [Example 203, Carbonic acid 3-cyano-2-[3-(2-ethoxy-phenyl)-propanoylamino]-4,5,6,7-tetrahydro-benzo[b]thiophen-6-ylmethyl ester thiazol-2-ylmethyl ester]	≤ 501	≥ 100000
CCOc1ccccc1CCC(=O)Nc1sc2c(c1C#N)CCC(OC(=O)NCc1cnoc1C)C2 (stereo not shown) [Example 204, (5-Methyl-isoxazol-4-ylmethyl)-carbamic acid 3-cyano-2-[3-(2-ethoxy-phenyl)-propanoylamino]-4,5,6,7-tetrahydro-benzo[b]thiophen-6-yl ester]	≤ 501	≥ 100000
CCOc1ccccc1CCC(=O)Nc1sc2c(c1C#N)CCC(OC(=O)NCc1conc1C)C2 (stereo not shown) [Example 205, (3-Methyl-isoxazol-4-ylmethyl)-carbamic acid 3-cyano-2-[3-(2-ethoxy-phenyl)-propanoylamino]-4,5,6,7-tetrahydro-benzo[b]thiophen-6-yl ester]	≤ 501	≥ 100000
CCOc1ccccc1CCC(=O)Nc1sc2c(c1C#N)CCC(OC(=O)NCc1nccs1)C2 (stereo not shown) [Example 206, Thiazol-2-ylmethyl-carbamic acid 3-cyano-2-[3-(2-ethoxy-phenyl)-propanoylamino]-4,5,6,7-tetrahydro-benzo[b]thiophen-6-yl ester]	≤ 501	≥ 100000
CCOc1ccccc1CCC(=O)Nc1sc2c(c1C#N)CCC(OC(=O)NCc1ccno1)C2 (stereo not shown) [Example 207, Isoxazol-5-ylmethyl-carbamic acid 3-cyano-2-[3-(2-ethoxy-phenyl)-propanoylamino]-4,5,6,7-tetrahydro-benzo[b]thiophen-6-yl ester]	≤ 501	≥ 100000
CCOc1ccccc1CCC(=O)Nc1sc2c(c1C#N)CCC(OC(=O)N1CCCC1)C2 (stereo not shown) [Example 208, Pyrrolidine-1-carboxylic acid 3-cyano-2-[3-(2-ethoxy-phenyl)-propanoylamino]-4,5,6,7-tetrahydro-benzo[b]thiophen-6-yl ester]	≤ 501	≥ 100000
CCOc1ccccc1CCC(=O)Nc1sc2c(c1C#N)CCC(OC(=O)NCc1ccnn1CC)C2 (stereo not shown) [Example 209, (2-Ethyl-2H-pyrazol-3-ylmethyl)-carbamic acid 3-cyano-2-[3-(2-ethoxy-phenyl)-propanoylamino]-4,5,6,7-tetrahydro-benzo[b]thiophen-6-yl ester]	≤ 501	≥ 100000
CCOc1ccccc1CCC(=O)Nc1sc2c(c1C#N)CCC(OC(=O)NCc1nc(C)cs1)C2 (stereo not shown) [Example 210, (4-Methyl-thiazol-2-ylmethyl)-carbamic acid 3-cyano-2-[3-(2-ethoxy-phenyl)-propanoylamino]-4,5,6,7-tetrahydro-benzo[b]thiophen-6-yl ester]	501 to 2000	≥ 100000
CCOc1ccccc1CCC(=O)Nc1sc2c(c1C#N)CCC(OC(=O)OCc1cncs1)C2 (stereo not shown) [Example 211, Carbonic acid 3-cyano-2-[3-(2-ethoxy-phenyl)-propanoylamino]-4,5,6,7-tetrahydro-benzo[b]thiophen-6-yl ester thiazol-5-ylmethyl ester]	501 to 2000	≥ 100000
CCOc1ccccc1CCC(=O)Nc1sc2c(c1C#N)CCC(COC(=O)NCc1cnoc1C)C2 (stereo not shown) [Example 212, (5-Methyl-isoxazol-4-ylmethyl)-carbamic acid 3-cyano-2-[3-(2-ethoxy-phenyl)-propanoylamino]-4,5,6,7-tetrahydro-benzo[b]thiophen-6-ylmethyl ester]	≤ 501	≥ 100000
CCOc1ccccc1CCC(=O)Nc1sc2c(c1C#N)CCC(COC(=O)NCc1csc(C)n1)C2 (stereo not shown) [Example 213, (2-Methyl-thiazol-4-ylmethyl)-carbamic acid 3-cyano-2-[3-(2-ethoxy-phenyl)-propanoylamino]-4,5,6,7-tetrahydro-benzo[b]thiophen-6-ylmethyl ester]	≤ 501	≥ 100000
CCOc1ccccc1CCC(=O)Nc1sc2c(c1C#N)CCC(COC(=O)NCc1nc(C)cs1)C2 (stereo not shown) [Example 214, (4-Methyl-thiazol-2-ylmethyl)-carbamic acid 3-cyano-2-[3-(2-ethoxy-phenyl)-propanoylamino]-4,5,6,7-tetrahydro-benzo[b]thiophen-6-ylmethyl ester]	≤ 501	≥ 100000
CCOc1ccccc1CCC(=O)Nc1sc2c(c1C#N)CCC(COC(=O)OCc1cncs1)C2 (stereo not shown) [Example 215, Carbonic acid 3-cyano-2-[3-(2-ethoxy-phenyl)-propanoylamino]-4,5,6,7-tetrahydro-benzo[b]thiophen-6-ylmethyl ester thiazol-5-ylmethyl ester]	≤ 501	≥ 100000
CCOc1ccccc1CCC(=O)Nc1sc2c(c1C#N)CCC(COC(=O)N1CCOCC1)C2 (stereo not shown) [Example 216, Morpholine-4-carboxylic acid 3-cyano-2-[3-(2-ethoxy-phenyl)-propanoylamino]-4,5,6,7-tetrahydro-benzo[b]thiophen-6-ylmethyl ester]	≤ 501	≥ 100000
COCCOC(=O)OC1CCc2c(sc(NC(=O)CCc3cccc(OC)c3)c2C#N)C1 (stereo not shown) [Example 217, Carbonic acid 3-cyano-2-[3-(3-methoxy-phenyl)-propanoylamino]-4,5,6,7-tetrahydro-benzo[b]thiophen-6-yl ester 2-methoxy-ethyl ester]	501 to 2000	≥ 100000
COCCNC(=O)OC1CCc2c(sc(NC(=O)CCc3cccc(OC)c3)c2C#N)C1 (stereo not shown) [Example 218, (2-Methoxy-ethyl)-carbamic acid 3-cyano-2-[3-(3-methoxy-phenyl)-propanoylamino]-4,5,6,7-tetrahydro-benzo[b]thiophen-6-yl ester]	≤ 501	≥ 100000
COc1cccc(CCC(=O)Nc2sc3c(c2C#N)CCC(OC(=O)OCc2cccnc2)C3)c1 (stereo not shown) [Example 219, Carbonic acid 3-cyano-2-[3-(3-methoxy-phenyl)-propanoylamino]-4,5,6,7-tetrahydro-benzo[b]thiophen-6-yl ester pyridin-3-ylmethyl ester]	501 to 2000	≥ 100000
COc1cccc(CCC(=O)Nc2sc3c(c2C#N)CCC(OC(=O)NCC2CCOCC2)C3)c1 (stereo not shown) [Example 220]	501 to 2000	≥ 100000
COc1cccc(CCC(=O)Nc2sc3c(c2C#N)CCC(OC(=O)NCc2ccnn2C)C3)c1 (stereo not shown) [Example 221, (2-Methyl-2H-pyrazol-3-ylmethyl)-carbamic acid 3-cyano-2-[3-(3-methoxy-phenyl)-propanoylamino]-4,5,6,7-tetrahydro-benzo[b]thiophen-6-yl ester]	≤ 501	≥ 100000
COc1cccc(CCC(=O)Nc2sc3c(c2C#N)CCC(OC(=O)NCc2cn(C)cn2)C3)c1 (stereo not shown) [Example 222, (1-Methyl-1H-imidazol-4-ylmethyl)-carbamic acid 3-cyano-2-[3-(3-methoxy-phenyl)-propanoylamino]-4,5,6,7-tetrahydro-benzo[b]thiophen-6-yl ester]	501 to 2000	≥ 100000
COc1cccc(CCC(=O)Nc2sc3c(c2C#N)CCC(OC(=O)NCc2cnn(C)c2)C3)c1 (stereo not shown) [Example 223, (1-Methyl-1H-pyrazol-4-ylmethyl)-carbamic acid 3-cyano-2-[3-(3-methoxy-phenyl)-propanoylamino]-4,5,6,7-tetrahydro-benzo[b]thiophen-6-yl ester]	≤ 501	≥ 100000
COc1cccc(CCC(=O)Nc2sc3c(c2C#N)CCC(OC(=O)NCc2cc(C)on2)C3)c1 (stereo not shown) [Example 224, (5-Methyl-isoxazol-3-ylmethyl)-carbamic acid 3-cyano-2-[3-(3-methoxy-phenyl)-propanoylamino]-4,5,6,7-tetrahydro-benzo[b]thiophen-6-yl ester]	501 to 2000	≥ 100000
COc1cccc(CCC(=O)Nc2sc3c(c2C#N)CCC(OC(=O)NCC2CCCO2)C3)c1 (stereo not shown) [Example 225, (Tetrahydro-furan-2-ylmethyl)-carbamic acid 3-cyano-2-[3-(3-methoxy-phenyl)-propanoylamino]-4,5,6,7-tetrahydro-benzo[b]thiophen-6-yl ester]	501 to 2000	≥ 100000
